Reference: patent US11453695B2, “Nucleoside analogues and methods of use thereof” (priority 2016, dated 2022)
pEC50: −log10 of the molar value. Read-outs that look alike come from different tables or passages of the source.

Key:
pancreatic cancer cells = conditions: background, reported; cited from earlier work
[1] = system: Capan-2 (pancreas adenocarcinoma) cell line; assay: Cell viability assay (Cell Titer Glo), growth inhibition; assay type: cell-based, human
Description: (§1) Growth inhibition of the compound comprises in the invention was tested in vitro using human cancer cell cultures
(§2) HepG2 (liver human hepatocellular carcinoma), BxPC3 and Capan-2 (adenocarcinomas), A549 (lung carcinoma), HCT-116 (colorectal carcinoma) and MCF-7 (breast tumor) cell lines were obtained from ATCC. The HepG2, BxPC3, Capan-2 and MCF-7 cells were placed into 75 ccm^3 tissue culture flasks and grown at 37° C. under a humidified 5% CO2 atmosphere in EMEM and RPMI-1640 medium respectively with 10% fetal bovine serum and 2% penicillin-streptomycin. Trypsin (0.05%) was used to detach cells from the bottom of flask.
(§3) Cells were plated in 96 well plates at a density of 10^4 cells/well and grown for 24 h. Cells were treated with different concentrations of the test compounds or vehicle alone (DMSO) and grown at 37° C. under a humidified 5% CO2 atmosphere. Their corresponding medium was used to dilute the 10 mM stocks of each compound to obtain 1 mM stock solutions and subsequently, the treatment concentrations. After 96 hours of incubation, the plates were equilibrated at room temperature for 30 minutes, […] of Cell Titer Glo® Luminometric Cell Viability Assay reagent (Promega) was added into each well, put on an orbital shaker for 2 minutes and incubated for 10 minutes at room temperature. The plate was transferred to a luminometer (Glomax Promega) and the luminescent signal was recorded. Each treatment at different concentration and the control group were triplicates or duplicates.
(§4) This is a homogeneous method to determine the number of viable cells in culture based on quantification of the ATP present which signals the presence of metabolically active cells.

[2] = system: BxPC3 (pancreas adenocarcinoma) cell line; assay: as above; assay type: cell-based, human
Description: as §1, §2, §3, §4

[3] = system: HepG2 (liver human hepatocellular carcinoma) cell line; assay: as above; assay type: cell-based
Description: as §1, §2, §3, §4

Panc-1 (pancreas) cells = assay: Growth inhibition in cancer cell lines (FIG. 5); assay type: cell-based, human; conditions: KRAS mutation
Description: Molecules such as LCB-2151 and LCB-2132 (Group B) and LCB-2179 (Group C) indeed show antiproliferative activities against cancer cell lines with KRAS mutations. FIG. 5 presents the activity of LCB-2151, LCB-2179, LCB-2132 and Gemcitabine in different cancer cell lines. Most liver and pancreas cell lines have the KRAS protein (oncogene identified in Kiersten rat sarcoma virus), which alters its signal transduction pathway, are resistant to Gemcitabine. […] Both HepG-2 (liver) and Panc-1 (pancreas) have the KRAS mutation and are resistant to Gemcitabine.
as §3

[4] = system: MCF-7 (breast tumor) cell line; assay: Cell viability assay (Cell Titer Glo), growth inhibition; assay type: cell-based; conditions: Homo sapiens, MCF7, 96 hours of incubation
Description: as §1, §2, §3, §4

[5] = system: HCT-116 (colorectal carcinoma) cell line; assay: as above; assay type: cell-based; conditions: Homo sapiens, 96 hours of incubation, read-out: Growth Inhibition (%) At 20 μM, HCT-116 (Colon)
Description: as §1, §2, §3, §4

[6] = system: A549 (lung carcinoma) cell line; assay: as above; assay type: cell-based; conditions: Homo sapiens, 96 hours of incubation
Description: as §1, §2, §3, §4

[7] = system: KRAS mutated human pancreatic and liver cancer cell lines (HepG-2, Panc-1, Capan-2); assay: Activity in KRAS mutated, Gemcitabine-resistant cancer cell lines; assay type: cell-based
Description: Liver and pancreatic cancer patients have an extremely poor survival rate (Table 1).
as §3

HCMV/AD169 = assay: Antiviral effect, cytopathic effect (CPE) of HCMV in HFF cells; assay type: cell-based, Human cytomegalovirus (HCMV)
Description: (§5) Table 4 presents results for Human cytomegalovirus (HCMV), which causes serious diseases in immune compromised hosts, particularly for transplantation recipient. Cytopathic effect (CPE) of A1-169 HMCV variant virus was measured using Human fibroblast cell lines (HFF). Cell titer were measured using Cellglo assay and luminescence in presence or absence of group A of molecules. […] 90% reduction of viral load was attained at 0.25 μM and no cell death was measured in presence of 150 μM of the tested compound, testifying of its lack of intrinsic cell toxicity. Ganciclovir the clinical gold standard in the treatment of HCMV has bee reported as active against the same strand at 1 to 3 μM.

[8] = Cell toxicity in the HCMV assay (Cellglo, luminescence); assay type: cell-based, human; conditions: human, human fibroblast cell lines (HFF); HFF cells
Description: as §5

[9] = system: Human fibroblast cell lines (HFF); assay: as above; assay type: cell-based; conditions: 150 μM; HFF cells
Description: as §5

[10] = BXPC3 (pancreas), KRAS wild type
[11] = Homo sapiens, Capan-2, 96 h, read-out: Growth Inhibition (%) At 20 μM, Capan-2 (Pancreas)
[12] = Homo sapiens, BXPC-3, 96 h, read-out: Growth Inhibition (%) At 20 μM, BxPC3 (Pancreas)
[13] = Homo sapiens, HepG2, 96 h, read-out: Growth Inhibition (%) At 20 μM, HepG2 (Liver)
[14] = Homo sapiens, Capan-2; read-out: IC50 (μM), Capan-2 (Pancreas), antiproliferative activity
[15] = Homo sapiens, BXPC-3; read-out: IC50 (μM), BxPC3 (Pancreas), antiproliferative activity
[16] = Homo sapiens, HepG2; read-out: IC50 (μM), HepG2 (Liver), antiproliferative activity

Compound | inhibition at 20 µM [1, 11] [%] | inhibition at 20 µM [2, 12] [%] | inhibition at 20 µM [4] [%] | inhibition at 20 µM [3, 13] [%] | inhibition at 20 µM [5] [%] | inhibition at 20 µM [6] [%] | further results
CCCCCCCC(=O)Nc1ccn([C@@H]2O[C@H](CO)[C@@H](O)C2(F)F)c(=O)n1 |  |  |  |  |  |  | pEC50 (pancreatic cancer cells): 4.00
Nc1ccn([C@@H]2O[C@H](CO)[C@@H](O)C2(F)F)c(=O)n1 [Gemcitabine, reference compound] |  |  |  |  |  |  | growth inhibition (FIG. 5), in words ([1]; Capan-2): no growth inhibition; growth inhibition (FIG. 5), in words [2, 10]: growth is blocked; plateau of inhibition (FIG. 5) ([3]; HepG-2 (liver), KRAS mutation; first of the two plateaus named): 50%; plateau of inhibition (FIG. 5) (Panc-1 (pancreas) cells; second of the two plateaus named): 30%
CC(C)OC(=O)[C@H](C)NP(=O)(OC[C@H]1O[C@@H](n2cnc3c(NCc4ccccc4)nc(Cl)nc32)[C@H](F)C1(C)COP(=O)(N[C@@H](C)C(=O)OC(C)C)Oc1ccccc1)Oc1ccccc1 (some centres unmarked) [LCB2076] | 14 | 25 | 69 | 0 | 10 |  | 
COc1nc(Cl)nc2c1ncn2[C@@H]1O[C@H](COP(=O)(N[C@@H](C)C(=O)OC(C)C)Oc2ccccc2)C(C)(COP(=O)(N[C@@H](C)C(=O)OC(C)C)Oc2ccccc2)[C@H]1F (some centres unmarked) [LCB2079] | 50 | 40 | 96 | 72 | 51 | 70 | inhibition at 50 µM ([4]; 50 μM): > 96%
CC(C)OC(=O)[C@H](C)NP(=O)(OC[C@H]1O[C@@H](n2cnc3c(N)nc(Cl)nc32)[C@H](F)C1(C)COP(=O)(N[C@@H](C)C(=O)OC(C)C)Oc1ccccc1)Oc1ccccc1 (some centres unmarked) [LCB2080] | 58 | 16 | 79 | 0 | 40 | 34 | 
CC(C)OC(=O)[C@H](C)NP(=O)(OC[C@H]1O[C@@H](n2cnc3c(N)ncnc32)C(F)(F)C1(C)COP(=O)(N[C@@H](C)C(=O)OC(C)C)Oc1ccccc1)Oc1ccccc1 (some centres unmarked) [LCB2092] | 48 | 62 | 54 | 16 | 60 | 25 | 
CC(C)OC(=O)[C@H](C)NP(=O)(OC[C@H]1O[C@@H](n2cnc3c(N)ncnc32)C(F)(F)C1(C)CO)Oc1ccccc1 (some centres unmarked) [LCB2093] | 22 | 6 | 14 | 6 | 28 | 0 | 
CC(C)OC(=O)[C@H](C)NP(=O)(OC[C@H]1O[C@@H](n2cnc3c(NCc4ccccc4)ncnc32)C(F)(F)C1(C)COP(=O)(N[C@@H](C)C(=O)OC(C)C)Oc1ccccc1)Oc1ccccc1 (some centres unmarked) [LCB2095] | 46 | 67 | 49 | 0 | 31 | 3 | 
CC(C)OC(=O)[C@H](C)NP(=O)(OC[C@H]1O[C@@H](n2cnc3c(N)nc(Cl)nc32)C(F)(F)C1(C)COP(=O)(N[C@@H](C)C(=O)OC(C)C)Oc1ccccc1)Oc1ccccc1 (some centres unmarked) [LCB2105] | 48 | 47 |  |  | 53 |  | 
CC(C)(CCC(CCSCc1ccc(C(F)(F)F)cc1)SCc1ccc(C(F)(F)F)cc1)CC(=O)Nc1ccn([C@H]2CC(O)[C@@H](CO)O2)c(=O)n1 (some centres unmarked) [LCB-2132] |  |  |  |  |  |  | EC90 activity against KRAS mutated cancer cell lines resistant to Gemcitabine [7]: show EC90 activity
CC(C)(CCC(CCSCc1ccc(C(F)(F)F)cc1)SCc1ccc(C(F)(F)F)cc1)CC(=O)Nc1ccn([C@@H]2O[C@H](CO)[C@@](C)(CO)C2(F)F)c(=O)n1 (stereo partly drawn) [LCB-2139, N-(1-((2R,4R,5S)-3,3-difluoro-4,5-bis(hydroxymethyl)-4-methyltetrahydrofuran-2-yl)-2-oxo-1,2-dihydropyrimidin-4-yl)-3,3-dimethyl-6,8-bis((4-(trifluoromethyl)benzyl)thio)octanamide] |  |  |  |  |  |  | IC50 [1, 14]: 8 µM; IC50 [2, 15]: 8 µM; IC50 [3, 16]: 8 µM
CC(C)(CCC(CCSCc1ccc(F)cc1)SCc1ccc(F)cc1)CC(=O)Nc1ccn([C@@H]2O[C@H](CO)[C@@](C)(CO)C2(F)F)c(=O)n1 (stereo partly drawn) [LCB-2140, N-(1-((2R,4R,5S)-3,3-difluoro-4,5-bis(hydroxymethyl)-4-methyltetrahydrofuran-2-yl)-2-oxo-1,2-dihydropyrimidin-4-yl)-6,8-bis((4-fluorobenzyl)thio)-3,3-dimethyloctanamide] |  |  |  |  |  |  | IC50 [1, 14]: 12.5 µM; IC50 [2, 15]: 8 µM; IC50 [3, 16]: 8 µM
CC(C)(CC[C@H](CCSCc1ccc(C(F)(F)F)cc1)SCc1ccc(C(F)(F)F)cc1)CC(=O)Nc1ccn([C@@H]2O[C@H](CO)[C@@](C)(CO)C2(F)F)c(=O)n1 [LCB-2151, (R)—N-(1-((2R,4R,5S)-3,3-difluoro-4,5-bis(hydroxymethyl)-4-methyltetrahydrofuran-2-yl)-2-oxo-1,2-dihydropyrimidin-4-yl)-3,3-dimethyl-6,8-bis((4-(trifluoromethyl)benzyl)thio) octanamide] |  |  |  |  |  |  | growth inhibition (FIG. 5), in words ([1]; Capan-2): block completely the growth; IC50 [1, 14]: 8 µM; growth inhibition (FIG. 5), in words [2, 10]: block completely the growth; IC50 [2, 15]: 5 µM; growth inhibition (FIG. 5), in words ([3]; HepG-2 (liver), KRAS mutation): block completely the growth; IC50 [3, 16]: 8 µM; EC90 activity against KRAS mutated cancer cell lines resistant to Gemcitabine [7]: show EC90 activity; growth inhibition (FIG. 5), in words (Panc-1 (pancreas) cells): block completely the growth
CC(C)OC(=O)[C@H](C)NP(=O)(OC[C@H]1O[C@@H](n2ccc(NC(=O)CC(C)(C)CC[C@H](CCSCc3ccc(C(F)(F)F)cc3)SCc3ccc(C(F)(F)F)cc3)nc2=O)[C@](C)(CO)[C@@H]1O)Oc1ccccc1 (stereo partly drawn) [LCB-2179, Isopropyl ((((2R,3S,4R,5R)-5-(4-(3,3-dimethyl-6,8-bis((4-(trifluoromethyl)benzyl)thio)octanamido)-2-oxopyrimidin-1(2H)-yl)-3-hydroxy-4-(hydroxymethyl)-4-methyltetrahydrofuran-2-yl)methoxy)(phenoxy)phosphoryl)-L-alaninate] |  |  |  |  |  |  | growth inhibition (FIG. 5), in words ([1]; Capan-2): block completely the growth; IC50 ([1]; Homo sapiens, Capan-2, read-out: IC50 (μM), Capan-2 (Pancreas), antiproliferative activity): 15 µM; growth inhibition (FIG. 5), in words [2, 10]: block completely the growth; IC50 ([2]; Homo sapiens, BXPC-3, read-out: IC50 (μM), BxPC3 (Pancreas), antiproliferative activity): 7 µM; growth inhibition (FIG. 5), in words ([3]; HepG-2 (liver), KRAS mutation): block completely the growth; IC50 ([3]; Homo sapiens, HepG2, read-out: IC50 (μM), HepG2 (Liver), antiproliferative activity): 15 µM; EC90 activity against KRAS mutated cancer cell lines resistant to Gemcitabine [7]: show EC90 activity; growth inhibition (FIG. 5), in words (Panc-1 (pancreas) cells): block completely the growth
CC(C)OC(=O)[C@H](C)NP(=O)(OC[C@H]1O[C@@H](n2ccc(N)nc2=O)[C@H](F)C1(C)CO)Oc1ccccc1 (some centres unmarked) [LCB-2187] |  |  |  |  |  |  | EC50 (HCMV/AD169; Human betaherpesvirus 5, AD169, HFF, read-out: EC50 (μM), antiviral effect): < 0.05 µM; EC90 (HCMV/AD169; Human betaherpesvirus 5, HCMV/AD169 in HFF cells): 0.25 µM; CC50 [8]: > 150 µM; cell death in presence of the tested compound [9]: no cell death
